From patent US20090286744A1, “Treatment of asthma” (IMMUNEREGEN BIOSCINECES INC., priority 2005, published 2009)
Ends that are not written are not given here.

System: PARP-1
Assay: Immunoblotting for PARP-1 in alveolar macrophages pre-treated with JP-8 and substance P
Assay type: cell-based
Conditions: PAM pre-treated with 8 ug/ml of JP-8 and substance P; 24 hours; immunoblotting (FIG. 1)
Procedure: Alveolar macrophages (PAM) were pre-treated with 8 ug/ml of JP-8 and substance P, or left untreated. After 24 hours, protein was extracted from the PAM and analyzed by immunoblotting for PARP-1, procaspase-3, p53, and GAPDH.

Substance P (RPKPQQFFGLM-NH2; listed as Homo sapiens)
PARP-1 expression in alveolar macrophages: causes degradation of PARP-1 expression in alveolar macrophages in a dose-dependent manner
